Results reported in US5623050A, “Stable polypeptides having c-AMP production enhancing activity and the use thereof” (Takeda Chemical Industries, Ltd., priority 1991, dated 1997).

Test: Oxidized product content by HPLC on storage
Assay type: physicochemical
Protocol: In order to clarify that the polypeptides of the present invention are not easily oxidized, oxidized product content (%) of Arg^17 -PACAP27 obtained in Example 1 below were assayed when stored both in lyophylization and in aqueous acetic acid. The assay of the oxidized product content (%) were conducted on High Performance Liquid Chromatography (HPLC). Conditions of HPLC are as follows:
Solution A 0.1% aqueous trifluoroacetic acid
Solution B acetonitrile containing 0.1% trifluoroacetic acid
A linear gradient elution from solution A to solution
Elution time of Arg^17 -PACAP27:19.9 min

CC[C@H](C)[C@H](NC(=O)CNC(=O)[C@H](CC(=O)O)NC(=O)[C@H](CO)NC(=O)[C@@H](N)Cc1c[nH]cn1)C(=O)N[C@@H](Cc1ccccc1)C(=O)N[C@H](C(=O)N[C@@H](CC(=O)O)C(=O)N[C@@H](CO)C(=O)N[C@@H](Cc1ccc(O)cc1)C(=O)N[C@@H](CO)C(=O)N[C@@H](CCCNC(=N)N)C(=O)N[C@@H](Cc1ccc(O)cc1)C(=O)N[C@@H](CCCNC(=N)N)C(=O)N[C@@H](CCCCN)C(=O)N[C@@H](CCC(N)=O)C(=O)N[C@@H](CCCNC(=N)N)C(=O)N[C@@H](C)C(=O)N[C@H](C(=O)N[C@@H](CCCCN)C(=O)N[C@@H](CCCCN)C(=O)N[C@@H](Cc1ccc(O)cc1)C(=O)N[C@@H](CC(C)C)C(=O)N[C@@H](C)C(=O)N[C@@H](C)C(=O)N[C@H](C(=O)N[C@@H](CC(C)C)C(N)=O)C(C)C)C(C)C)[C@@H](C)O [Arg^17 -PACAP27]
0%: Oxidized product (%) just after synthesizing (just after synthesizing) | Oxidized product (%) aqueous acetic acid (stored in aqueous acetic acid) | Oxidized product (%) lyophilization store (stored in lyophilization)
